This passage reports fold induction and activity results from patent publication US12600696B2 (XENIOPRO GMBH, priority 2017, dated 2026).

The subject of test [1] is Notch signaling (hNotch1ΔE, human Notch1 receptor) in HeLa cells. As to the kind of experiment: Notch reporter assay (luciferase luminescence readout in transfected HeLa cells). It is filed as cell-based. As to conditions: Homo sapiens, 20 hours, relative to DMSO baseline level of 1.0, read-out: AVEw, weighted arithmetic mean of double-normalized Notch-reporter luciferase luminescence values (Activity Range). The protocol:
An according Notch-reporter assay, i.e. a luciferase-based luminescence readout, was used here to quantify the ability of the claimed small molecules to augment Notch signaling in a cellular system. For this purpose, HeLa cells, obtainable from the American Type Culture Collection (ATCC) under the accession number ATCC-CCL-2, were transiently transfected for 24 hours using FuGENE® HD (Promega, #E2311) as transfection reagent with expression vectors of a membrane-tethered form of the constitutively active intracellular domain of the human Notch1 receptor (hNotch1ΔE) to activate the signaling cascade (BPS Bioscience, human analogue to Notch Pathway Reporter Kit #60509 component C), a Firefly luciferase being expressed under the control of a Notch-responsive promoter to monitor Notch signaling (BPS Bioscience, Notch Pathway Reporter Kit #60509, CSL luciferase reporter vector from component A not premixed with Renilla luciferase vector), and a Renilla luciferase being constitutively expressed in a Notch signaling independent manner to include a measure for the cell number per sample (Promega, pRL-SV40, #E2231). HeLa cells were cultivated according to the protocol of the provider in DMEM medium (Fisherscientific, #11584456) containing 10% fetal bovine serum (Fisherscientific, #15517589). The transfection was carried out in a 100 mm-culture dish (StarLab, #CC7682-3394) with cells being properly attached to the plate at a cell confluency of 80-90% in a total volume of 7 mL culture medium. Per dish to be transfected, a transfection mix was prepared by adding to 238 μL Opti-MEM (Fisherscientific, #10149832) 40 μL of the hNotch1ΔE expression vector (100 ng/μL), 80 μL of the CSL luciferase reporter vector (40 ng/μL), 4 μL of the pRL-SV40-Renilla luciferase vector (10 ng/μL), and in the last step 18.1 μL of FuGENE® HD. After addition of FuGENE® HD the transfection mix was let stand for 15 min at room temperature and hereafter equally distributed into the culture dish. Subsequently, i.e. after 24 hours of transfection, the transfected cells (10.000 cells per well) were incubated with the test-compounds at a final concentration of 10 μM (diluted from 10 mM stock-solutions in DMSO to a final DMSO concentration of 0.1% v/v) or with the empty carrier DMSO at 0.1% v/v as control for 20 hours in 96-well plates suitable for luminescence readouts (CORNING, #3610). Hereafter, the cells were lysed with 30 μL per well of Passive Lysis Buffer (Promega, #E194A, component of Dual-Luciferase® Reporter Assay System, #E1910) and the Firefly as well as Renilla luciferase values were measured with a luminescence reader with applying 15 μL per well each of the corresponding enzyme substrates needed to create the luminescence signals (Promega, Dual-Luciferase® Reporter Assay System, #E1910).
The suitability of the assays for monitoring Notch signaling was controlled by additionally including a generally accepted commercial Notch inhibitor, i.e. DAPT, as negative control, as well as the reported Notch enhancer resveratrol (RES) as positive control (Pinchot et al., Cancer 2011, 117, 1386-1398; Truong et al., Ann. Surg. Oncol. 2011, 18, 1506-1511; Yu et al., Mol. Cancer Ther. 2013, 12, 1276-1287). Both control compounds were likewise tested at 10 μM.
Per single experiment the measurement was performed in six replicates per compound. For every compound, this experiment was repeated in three or more independent replicates. The values of the Notch-reporter luciferase were normalized by division through the corresponding individual Notch-independent Renilla values in order to eliminate the impact of variation in the absolute cell-numbers in between the samples. For every individual plate, a second normalization was performed against the equally weighted arithmetic mean (here abbreviated as AVE) of the six associated Renilla-normalized DMSO-control values within a single experiment in order to obtain the relative values to a baseline level of 1.0. […]
(Reporter assays use an easily measured gene product as a stand-in for the process of interest.)

Test [2] concerns HL-60 cells (human acute myeloid leukemia cells). As to the kind of experiment: alamarBlue proliferation assay with HL-60 cells. It is filed as cell-based. The settings on record: 120 h, 5 days, relative to DMSO baseline level of 1.0, read-out: AVEw, weighted arithmetic mean of normalized fluorescence intensity values (Activity Range), HL-60 proliferation. On the procedure: The antiproliferative activities of compounds falling under formula I, formula II, formula III, formula IV and formula V were investigated on cells or cell lines originating from a disorder of the myeloid cell compartment, the neuroendocrine system, the cervix, and the mucosal epithelium, as well as from the skin epithelium. To this end, HL-60 cells, TT cells, HeLa cells, CAL-27 cells and human primary epidermal keratinocytes (HPEK) were seeded into 96-well plates suitable for fluorescence assays (CORNING #3598) at following initial cell numbers: 1000 cells per well for HL-60; 9000 cells per well for TT; 2000 cells per well for HeLa, 2000 cells per well for CAL-27, 2000 cells per well for HPEK. The cells were treated with compounds at indicated final concentrations (diluted from the 1000× stock-solutions in DMSO to a final DMSO concentration of 0.1% v/v) or with the empty carrier DMSO at 0.1% v/v as control for 5 days. At day 5 after starting the treatments the cells were subjected to the alamarBlue® Proliferation Assay (Bio-Rad Serotec GmbH, BUF012B) according to the protocol of the manufacturer. The readout was taken with a multi-well plate-reader in the fluorescence mode with applying a filter for excitation at 560 nm (band width 10 nm) and for emission at 590 nm (band width 10 nm). Resveratrol (RES) treatment was included as control for growth inhibition.
The assays were performed in duplicate or more replicates of independent single experiments each containing a six-fold replicate for every condition. For every individual plate, the measured fluorescence intensity values of the conditions with compound treatment were normalized against the corresponding equally weighted arithmetic mean of the fluorescence intensity values of the six DMSO treated control wells in order to obtain the relative values to a baseline level of 1.0. The statistical calculations were performed in analogy to the luciferase assay as described above. To this end, two independent outlier analyses were performed according to the methods by Peirce and Chauvenet (Ross, Journal of Engineering Technology 2003, 1-12). Outliers confirmed by at least one of the methods were excluded from the calculations but not more than one value out of six per compound within a single experiment. The weighted arithmetic mean AVEw for each compound was calculated from the normalized values over all independent replicates of the single experiments comprising the six replicates each. The corresponding standard deviation for the weighted arithmetic mean was calculated according to the method described by Bronstein et al. (Bronstein, Semendjajew, Musiol, Mühlig, Taschenbuch der Mathematik, 5th edition 2001 (German), publisher: Verlag Harri Deutsch, Frankfurt am Main and Thun) and was combined with the Gauß′ error propagation associated with the performed calculation for the normalization. The resulting standard deviation is herein referred to as “combined standard deviation”.
HL-60 cells were cultivated according to the protocol of the provider in RPMI 1640 medium (Fisherscientific, #11554526) containing 10% fetal bovine serum (Fisherscientific, #15517589).
A compound is considered as a growth inhibitor of HL-60 cells, if—at a reference concentration of 20 μM—the weighted arithmetic mean of the normalized fluorescence intensity values after addition of the corresponding combined standard deviation amounts to 0.9 or lower, in particular to 0.8 or lower, 0.7 or lower, 0.6 or lower, 0.4 or lower, and 0.2 or lower, relative to the overall basis level of 1.0. The overall basis level was calculated as the weighted arithmetic mean of all normalized values from the DMSO control measurements in analogy to the calculations performed for the test-compounds. The corresponding combined standard deviation for the DMSO values amounts to less than 1·10^−2.
In general terms: The colour change of resazurin is a common sign of viable cells or microbes.

Take `CN(C)C(=O)c1ccc(Oc2ccc(C3C[C@@H]4CC[C@H]3C4)cc2)nc1` (stereo partly drawn) [Compound 336, 6-(4-((1S,4R)-bicyclo[2.2.1]heptan-2-yl)phenoxy)-N,N-dimethylnicotinamide]: in test [1], the fold induction at 10 µM lay within 1.4 to 1.7. The activity at 20 µM in test [2] was 60 to 70%.

For `CCCCc1ccc(Oc2ccc(C(=O)OCC)cc2F)cc1` [Compound 395, Ethyl 4-(4-butylphenoxy)-3-fluorobenzoate], the fold induction at 10 µM in test [1] fell in the range of 1.4 to 1.7. Also, in test [2], the activity at 20 µM was in the range of 80 to 90%.

For the molecule `CCOC(=O)c1ccc(Oc2ccc(C3CC4CCC3C4)cc2)cc1` (racemic) [Compound 066, ethyl 4-(4-((1S,4R)-bicyclo[2.2.1]heptan-2yl)phenoxy)benzoate], the fold induction at 10 µM in test [1] fell in the range of 1.3 to 1.4. Moreover, the activity at 20 µM in test [2] lay within 40 to 60%.

Turning to `CN(C)C(=O)c1ccc(Oc2ccc(C3CC4CCC3CC4)cc2)nc1` (stereo not shown) [Compound 337, 6-(4-((1s,4s)-bicyclo[2.2.2]octan-2-yl)phenoxy)-N,N-dimethylnicotinamide], the fold induction at 10 µM in test [1] was 1.4 to 1.7. The activity at 20 µM in test [2] was 80 to 90%.

As for `CCOC(=O)c1ccc(Oc2ccc(C3CCCCC3)cc2)c(F)c1` [Compound 410, ethyl 4-(4-cyclohexylphenoxy)-3-fluorobenzoate], the fold induction at 10 µM in test [1] lay within 1.4 to 1.7. Besides, the activity at 20 µM in test [2] is 70 to 80%.

Consider `CN(C)C(=O)c1ccc(Oc2ccc(C(F)(F)F)cc2)nc1` [Compound 325, N,N-dimethyl-6-(4-(trifluoromethyl)phenoxy)nicotinamide], for which the fold induction at 10 µM in test [1] was in the range of 1.2 to 1.3. In test [2], the activity at 20 µM was in the range of 80 to 90%.

Turning to `CCCc1ccc(Oc2ccc(C(=O)N(C)C)cc2)cc1` [Compound 217, N,N-dimethyl-4-(4-propylphenoxy)benzamide], in test [1], the fold induction at 10 µM lay within 1.2 to 1.3. Further, the activity at 20 µM in test [2] was 60 to 70%.

With `CCCCc1ccc(Oc2ccc(C(=O)N(C)C)cn2)cc1` [Compound 319, 6-(4-butylphenoxy)-N,N-dimethylnicotinamide], the fold induction at 10 µM in test [1] was 1.3 to 1.4. Besides, the activity at 20 µM in test [2] fell in the range of 40 to 60%.

As for `CC(C)c1ccc(Oc2ccc(C(=O)N(C)C)cc2)cc1` [Compound 221, 4-(4-isopropylphenoxy)-N,N-dimethylbenzamide], the fold induction at 10 µM in test [1] was in the range of 1.1 to 1.2. The activity at 20 µM in test [2] fell in the range of 40 to 60%.

With `Cc1ccc(Oc2ccc(C(=O)N(C)C)cn2)cc1` [Compound 316, N,N-dimethyl-6-(p-tolyloxy)nicotinamide], the fold induction at 10 µM in test [1] lay in the range of 1.2 to 1.3. For the same molecule, the activity at 20 µM in test [2] was 80 to 90%.

For `Cc1ccc(Oc2ccc(C(=O)N(C)C)cc2)cc1` [Compound 215, N,N-dimethyl-4-(p-tolyloxy)benzamide], the fold induction at 10 µM in test [1] is 1.1 to 1.2. In addition, the activity at 20 µM in test [2] is 70 to 80%.

`CN(C)C(=O)c1ccc(Oc2ccc(C3(C(F)(F)F)CC3)cc2)cc1` [Compound 784, N,N-Dimethyl-4-(4-(1-(trifluoromethyl)cyclopropyl)phenoxy)-benzamide]: the fold induction at 10 µM in test [1] is 1.2 to 1.3. The activity at 20 µM in test [2] lay within 40 to 60%.

Turning to `CCOC(=O)c1ccc(Oc2ccc(C(C)(C)CC)cc2)c(F)c1` [Compound 399, ethyl 3-fluoro-4-(4-(tert-pentyl)phenoxy)benzoate], the fold induction at 10 µM in test [1] lay in the range of 1.1 to 1.2. For the same molecule, the activity at 20 µM in test [2] lay in the range of 80 to 90%.

As for `CCOC(=O)c1ccc(Oc2ccc(C3CC4CCC3C4)cc2)nc1` (racemic) [Compound 133, ethyl 6-(4-((1S,4R)-bicyclo[2.2.1]heptan-2-yl)phenoxy)nicotinate], the fold induction at 10 µM in test [1] lay in the range of 1.2 to 1.3. Moreover, the activity at 20 µM in test [2] lay within 40 to 60%.

As to `COC(=O)c1ccc(Oc2ccc(C3(C(F)(F)F)CC3)cc2)cc1` [Compound 712, Methyl 4-(4-(1-(trifluoromethyl)cyclopropyl)phenoxy)benzoate], the fold induction at 10 µM in test [1] lay within 1.1 to 1.2. For the same molecule, the activity at 20 µM in test [2] was in the range of 80 to 90%.

For `CCc1ccc(Oc2ccc(C(=O)N(C)C)cc2)cc1` [Compound 216, 4-(4-ethylphenoxy)-N,N-dimethylbenzamide], in test [1], the fold induction at 10 µM was in the range of 1.4 to 1.7. Further, the activity at 20 µM in test [2] fell in the range of 0 to 20%.

On to `CN(C)C(=O)c1ccc(Oc2ccc(C(C)(C)C)cc2)cc1` [Compound 222, 4-(4-(tert-Butyl)phenoxy)-N,N-dimethylbenzamide], for which, in test [1], the fold induction at 10 µM lay within 1.2 to 1.3. Further, in test [2], the activity at 20 µM fell in the range of 60 to 70%.

As to `COC(=O)c1ccc(Oc2ccc(C3C[C@@H]4CC[C@H]3C4)cc2)cc1` (stereo partly drawn) [Compound 043, methyl 4-(4-((1S,4R)-bicyclo[2.2.1]heptan-2-yl)phenoxy)benzoate], the fold induction at 10 µM in test [1] is 1.7 to 2. In test [2], the activity at 20 µM lay within 40 to 60%.

Consider `CCCCCc1ccc(Oc2ccc(C(=O)O)cn2)cc1` [Compound 073, 6-(4-pentylphenoxy)nicotinic acid], for which the fold induction at 10 µM in test [1] lay within 1.4 to 1.7. Also, the activity at 20 µM in test [2] fell in the range of 80 to 90%.

As to `CCOC(=O)c1ccc(Oc2ccc(C3CC4CCC3CC4)cc2)cc1` (racemic) [Compound 067, ethyl 4-(4-((1s,4s)-bicyclo[2.2.2]octan-2-yl)phenoxy)benzoate], in test [1], the fold induction at 10 µM fell in the range of 1.4 to 1.7. The activity at 20 µM in test [2] was in the range of 60 to 70%.
